Measurements reported in ChEMBL document CHEMBL4480396 (Eur J Med Chem, 2019).
Active and inactive are the calls of the source. No cut-off for these calls is given here.

Legend:
PC-3 = assay: Antiproliferative activity against human PC3 cells measured after 48 hrs by MTT assay; format: functional, cell-based; conditions: PC-3, 48 h
MGC-803 [1] = assay: Antiproliferative activity against human MGC803 cells measured after 48 hrs by MTT assay; format: functional, cell-based; conditions: MGC-803, 48 h
HepG2 = assay: Antiproliferative activity against human HepG2 cells measured after 48 hrs by MTT assay; format: functional, cell-based; conditions: HepG2, 48 h
MGC-803 [2] = assay: Cell cycle arrest in human MGC803 cells assessed as accumulation at G2/M-phase measured after 48 hrs by propidium iodide staining based flow cytometry; format: functional
MGC-803 [3] = assay: Induction of apoptosis in human MGC803 cells assessed as necrotic cells at 30 nM after 48 hrs by Annexin V-FITC/propidium iodide staining based flow cytometry (reference value: 0.3%); format: functional
MGC-803 [4] = assay: Cell cycle arrest in human MGC803 cells assessed as decrease in accumulation at G1-phase at 30 to 90 nM measured after 48 hrs by propidium iodide staining based flow cytometry; format: functional
MGC-803 [5] = assay: Induction of apoptosis in human MGC803 cells assessed as necrotic cells at 60 nM after 48 hrs by Annexin V-FITC/propidium iodide staining based flow cytometry (reference value: 0.3%); format: functional
MGC-803 [6] = assay: Induction of apoptosis in human MGC803 cells assessed as late apoptotic cells at 30 nM after 48 hrs by Annexin V-FITC/propidium iodide staining based flow cytometry (reference value: 2.9%); format: functional
MGC-803 [7] = assay: Induction of apoptosis in human MGC803 cells after 48 hrs by Annexin V-FITC/propidium iodide staining based flow cytometry; format: functional, cell-based
[8] = molecular target: T1, Cyclin-dependent kinase 1/cyclin B1 (Homo sapiens) (UniProt P06493+P14635); assay: Effect on CDK1-cyclin B1 protein-protein interaction in human MGC803 cells assessed as change in cyclin B1 expression at 30 to 90 nM measured after 48 hrs by immunoprecipitation based Western blot analysis; format: cell-based
MGC-803 [9] = assay: Induction of apoptosis in human MGC803 cells assessed as viable cells at 90 nM after 48 hrs by Annexin V-FITC/propidium iodide staining based flow cytometry (reference value: 94.9%); format: functional; conditions: MGC-803, 48 h, read-out: Activity
MGC-803 [10] = assay: Induction of apoptosis in human MGC803 cells assessed as down regulation of XIAP expression after 48 hrs by Western blot analysis; format: functional, cell-based
MGC-803 [11] = assay: Induction of apoptosis in human MGC803 cells assessed as early apoptotic cells at 60 nM after 48 hrs by Annexin V-FITC/propidium iodide staining based flow cytometry (reference value: 1.9%); format: functional
MGC-803 [12] = assay: Induction of apoptosis in human MGC803 cells assessed as necrotic cells at 90 nM after 48 hrs by Annexin V-FITC/propidium iodide staining based flow cytometry (reference value: 0.3%); format: functional
MGC-803 [13] = assay: Induction of apoptosis in human MGC803 cells assessed as early apoptotic cells at 90 nM after 48 hrs by Annexin V-FITC/propidium iodide staining based flow cytometry (reference value: 1.9%); format: functional
MGC-803 [14] = assay: Induction of apoptosis in human MGC803 cells assessed as up regulation of cleaved PARP expression at 30 to 90 nM after 48 hrs by Western blot analysis; format: functional, cell-based
MGC-803 [15] = assay: Induction of apoptosis in human MGC803 cells assessed as up regulation of DR5 expression at 30 to 90 nM after 48 hrs by Western blot analysis; format: functional, cell-based
MGC-803 [16] = assay: Antiproliferative activity against human MGC803 cells assessed as cell viability at 120 nM measured after 7 days by crystal violet staining based assay relative to control; format: functional; conditions: MGC-803, 168 h, read-out: Activity
[17] = molecular target: Tubulin beta (Homo sapiens) (UniProt P68371+Q9H4B7+Q13509+P04350+Q3ZCM7+P07437+Q13885+Q9BVA1+Q9BUF5+A6NNZ2); assay: Inhibition of EBI binding to beta-tubulin colchicine binding site in human MGC803 cells at 0.4 to 4 uM preincubated for 2 hrs followed by EBI addition and measured after 2 hrs by Western blot analysis; format: cell-based
MGC-803 [18] = assay: Induction of apoptosis in human MGC803 cells assessed as late apoptotic cells at 60 nM after 48 hrs by Annexin V-FITC/propidium iodide staining based flow cytometry (reference value: 2.9%); format: functional
MGC-803 [19] = assay: Antiproliferative activity against human MGC803 cells assessed as cell viability at 90 nM measured after 7 days by crystal violet staining based assay relative to control; format: functional; conditions: MGC-803, 168 h, read-out: Activity
MGC-803 [20] = assay: Antiproliferative activity against human MGC803 cells assessed as cell viability at 30 nM measured after 7 days by crystal violet staining based assay relative to control; format: functional; conditions: MGC-803, 168 h, read-out: Activity
MGC-803 [21] = assay: Induction of apoptosis in human MGC803 cells assessed as viable cells at 30 nM after 48 hrs by Annexin V-FITC/propidium iodide staining based flow cytometry (reference value: 94.9%); format: functional; conditions: MGC-803, 48 h, read-out: Activity
MGC-803 [22] = assay: Cell cycle arrest in human MGC803 cells assessed as decrease in accumulation at S-phase at 30 to 90 nM measured after 48 hrs by propidium iodide staining based flow cytometry; format: functional
MGC-803 [23] = assay: Down regulation of CDK1 expression in human MGC803 cells at 30 to 90 nM in presence of proteasome inhibitor MG132 by Western blot analysis; format: functional, cell-based
MGC-803 [24] = assay: Cell cycle arrest in human MGC803 cells assessed as accumulation at G2/M-phase at 90 nM measured after 48 hrs by propidium iodide staining based flow cytometry relative to control; format: functional
MGC-803 [25] = assay: Induction of apoptosis in human MGC803 cells assessed as viable cells at 60 nM after 48 hrs by Annexin V-FITC/propidium iodide staining based flow cytometry (reference value: 94.9%); format: functional; conditions: MGC-803, 48 h, read-out: Activity
Tubulin = assay: Inhibition of tubulin (unknown origin) polymerization measured every minute by spectrophotometric method; format: protein-complex assay, Homo sapiens
MGC-803 [26] = assay: Induction of apoptosis in human MGC803 cells assessed as down regulation of Bcl-xl expression after 48 hrs by Western blot analysis; format: functional, cell-based
MGC-803 [27] = assay: Inhibition of colony formation in human MGC803 cells after 7 days by crystal violet staining based assay; format: functional, cell-based
[28] = molecular target: Cyclin-dependent kinase 1 (Homo sapiens) (UniProt P06493); assay: Effect on CDK1 phosphorylation at Tyr15 residues in human MGC803 cells at 30 to 90 nM by Western blot analysis; format: cell-based
MGC-803 [29] = assay: Antiproliferative activity against human MGC803 cells assessed as cell viability at 60 nM measured after 7 days by crystal violet staining based assay relative to control; format: functional; conditions: MGC-803, 168 h, read-out: Activity
Tubulin (Homo sapiens) = Tubulin (Homo sapiens) (UniProt P68371+Q9H4B7+P0DPH7+P68366+Q13509+Q71U36+P04350+Q3ZCM7+P07437+P68363+Q9BQE3+Q6PEY2+Q13885+Q9BVA1+Q9BUF5); assay: Induction of microtubule depolymerization in human MGC803 cells at 60 to 90 nM measured after 48 hrs by DAPI staining based laser confocal microscopic analysis; format: cell-based
MGC-803 [30] = assay: Induction of apoptosis in human MGC803 cells assessed as up regulation of Bax expression at 30 to 90 nM after 48 hrs by Western blot analysis; format: functional, cell-based
MGC-803 [31] = assay: Down regulation of CDK1 expression in human MGC803 cells by Western blot analysis; format: functional, cell-based
MGC-803 [32] = assay: Induction of apoptosis in human MGC803 cells assessed as early apoptotic cells at 30 nM after 48 hrs by Annexin V-FITC/propidium iodide staining based flow cytometry (reference value: 1.9%); format: functional
MGC-803 [33] = assay: Induction of apoptosis in human MGC803 cells assessed as late apoptotic cells at 90 nM after 48 hrs by Annexin V-FITC/propidium iodide staining based flow cytometry (reference value: 2.9%); format: functional
MGC-803 [34] = assay: Up regulation of CDC25C expression in human MGC803 cells at 30 to 90 nM by Western blot analysis; format: functional, cell-based
[35] = molecular target: T1, Cyclin-dependent kinase 1/cyclin B1 (Homo sapiens); assay: Effect on CDK1-cyclin B1 protein-protein interaction in human MGC803 cells assessed as change in CDK1 expression at 30 to 90 nM measured after 48 hrs by immunoprecipitation based Western blot analysis; format: cell-based

T1 sequence (P06493 whole entry, looked up): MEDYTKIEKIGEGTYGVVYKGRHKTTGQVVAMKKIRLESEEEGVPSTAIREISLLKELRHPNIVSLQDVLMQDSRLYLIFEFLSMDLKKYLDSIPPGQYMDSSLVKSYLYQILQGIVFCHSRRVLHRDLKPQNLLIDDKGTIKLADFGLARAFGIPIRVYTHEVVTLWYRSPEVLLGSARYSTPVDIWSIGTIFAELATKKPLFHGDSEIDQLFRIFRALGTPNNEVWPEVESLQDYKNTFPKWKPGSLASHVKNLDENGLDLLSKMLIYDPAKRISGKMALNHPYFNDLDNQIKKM
T1 sequence (P14635 whole entry, looked up): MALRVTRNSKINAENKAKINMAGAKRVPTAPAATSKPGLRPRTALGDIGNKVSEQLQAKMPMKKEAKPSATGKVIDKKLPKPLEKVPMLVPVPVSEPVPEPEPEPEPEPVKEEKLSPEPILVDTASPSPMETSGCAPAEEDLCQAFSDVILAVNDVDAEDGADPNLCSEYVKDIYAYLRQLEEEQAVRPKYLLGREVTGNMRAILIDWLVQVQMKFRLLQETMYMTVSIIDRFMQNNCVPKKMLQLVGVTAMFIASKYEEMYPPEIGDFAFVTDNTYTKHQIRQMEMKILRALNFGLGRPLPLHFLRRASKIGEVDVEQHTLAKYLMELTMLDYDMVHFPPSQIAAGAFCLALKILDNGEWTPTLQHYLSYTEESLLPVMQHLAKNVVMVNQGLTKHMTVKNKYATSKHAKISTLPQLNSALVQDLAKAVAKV
Sequence of Cyclin-dependent kinase 1 (Homo sapiens) (P06493 whole entry, looked up): as the sequence (P06493 whole entry, looked up) above

## COc1cc2c(c(OC)c1OC)-c1ccc(OC)c(=O)cc1[C@@H](NC(C)=O)CC2 [COLCHICINE]
PC-3
  IC50: 0.59 µM
MGC-803 [1]
  IC50: 0.27 µM
HepG2
  IC50: 4.6 µM

## COc1ccc(CN(C(=O)Cn2cc(CN3c4ccccc4Sc4ccc(C(F)(F)F)cc43)nn2)c2cc(OC)c(OC)c(OC)c2)cc1
PC-3
  IC50: > 80 µM
MGC-803 [1]
  IC50: > 80 µM
HepG2
  IC50: > 80 µM

## COc1ccc(CN(C(=O)Cn2cc(CNS(=O)(=O)c3ccc(C)cc3)nn2)c2cc(OC)c(OC)c(OC)c2)cc1
PC-3
  IC50: 12.4 µM
MGC-803 [1]
  IC50: 1.58 µM
HepG2
  IC50: 30.5 µM

## C#CCOc1ccc2c(C)cc(=O)oc2c1
PC-3
  IC50: > 80 µM
MGC-803 [1]
  IC50: > 80 µM
HepG2
  IC50: > 80 µM

## COc1ccc(CN(C(=O)Cn2cc(CSc3nnnn3C)nn2)c2cc(OC)c(OC)c(OC)c2)cc1
PC-3
  IC50: 10.9 µM
MGC-803 [1]
  IC50: 6.57 µM
HepG2
  IC50: 28.3 µM

## COc1ccc(CN(C(=O)Cn2cc(COc3ccc4c(C)cc(=O)oc4c3)nn2)c2cc(OC)c(OC)c(OC)c2)cc1
MGC-803 [2]
  Activity: Dose-dependent effect
MGC-803 [3]
  Activity: 0.2%
MGC-803 [4]
  Activity: Active
MGC-803 [5]
  Activity: 0.3%
MGC-803 [6]
  Activity: 3.1%
MGC-803 [7]
  Activity: Dose-dependent effect
[8]
  Activity: inactive
MGC-803 [9]
  viability at 0.09 µM: 37.9%
MGC-803 [10]
  Activity: Dose-dependent effect
PC-3
  IC50: 0.34 µM
MGC-803 [11]
  Activity: 3.1%
MGC-803 [12]
  Activity: 0.4%
MGC-803 [13]
  Activity: 25%
MGC-803 [14]
  Activity: Active
MGC-803 [15]
  Activity: Active
MGC-803 [16]
  viability at 0.12 µM: 16%
[17]
  inhibition: Active
MGC-803 [18]
  Activity: 4.5%
MGC-803 [19]
  viability at 0.09 µM: 31.8%
MGC-803 [20]
  viability at 0.03 µM: 85.9%
MGC-803 [21]
  viability at 0.03 µM: 94.5%
MGC-803 [22]
  Activity: Active
MGC-803 [23]
  Activity: Active
MGC-803 [24]
  Activity: Active
MGC-803 [25]
  viability at 0.06 µM: 92.1%
Tubulin
  IC50: 2.16 µM
MGC-803 [26]
  Activity: Dose-dependent effect
MGC-803 [27]
  inhibition: Dose-dependent effect
[28]
  Activity: inactive
MGC-803 [29]
  viability at 0.06 µM: 62.6%
Tubulin (Homo sapiens)
  Activity: Active
MGC-803 [1]
  IC50: 0.13 µM
MGC-803 [30]
  Activity: Active
HepG2
  IC50: 1.74 µM
MGC-803 [31]
  Activity: Dose-dependent effect
MGC-803 [32]
  Activity: 2.1%
MGC-803 [33]
  Activity: 36.8%
MGC-803 [34]
  Activity: inactive
[35]
  Activity: inactive

## COc1ccc(CN(C(=O)Cn2cc(CSc3nc4ccccc4o3)nn2)c2cc(OC)c(OC)c(OC)c2)cc1
PC-3
  IC50: 5.05 µM
MGC-803 [1]
  IC50: 1.85 µM
HepG2
  IC50: 15.6 µM

## COc1ccc(CN(C(=O)Cn2cc(COc3cc(=O)oc4ccccc34)nn2)c2cc(OC)c(OC)c(OC)c2)cc1
PC-3
  IC50: 5.14 µM
MGC-803 [1]
  IC50: 3.66 µM
HepG2
  IC50: 6.25 µM

## COc1ccc(CN(C(=O)Cn2cc(CSc3nc4ccccc4s3)nn2)c2cc(OC)c(OC)c(OC)c2)cc1
PC-3
  IC50: 28.4 µM
MGC-803 [1]
  IC50: 0.48 µM
HepG2
  IC50: 49.2 µM

## COc1ccc(CN(C(=O)Cn2cc(CSc3nncs3)nn2)c2cc(OC)c(OC)c(OC)c2)cc1
PC-3
  IC50: 16.5 µM
MGC-803 [1]
  IC50: 5 µM
HepG2
  IC50: 38.6 µM
